Here are results for three compounds from ChEMBL document CHEMBL1201862, “PubChem BioAssay data set” (2004).

Structures are written as SMILES. The source made the active and inactive calls.

The target in experiment [1] is Small ubiquitin-related modifier 1 (Homo sapiens, UniProt P63165). As to the kind of experiment: SUMO1 protein interaction blockers, potency – biochemical, fluorescence polarization, uHTS hits, dose response (AID 624382). It counts as functional. To be noted: read-out: IC50_Mean.
Experiment [2] addresses T1, Mannose-6-phosphate isomerase (Homo sapiens, UniProt P34949).
T1 sequence (P34949 whole entry): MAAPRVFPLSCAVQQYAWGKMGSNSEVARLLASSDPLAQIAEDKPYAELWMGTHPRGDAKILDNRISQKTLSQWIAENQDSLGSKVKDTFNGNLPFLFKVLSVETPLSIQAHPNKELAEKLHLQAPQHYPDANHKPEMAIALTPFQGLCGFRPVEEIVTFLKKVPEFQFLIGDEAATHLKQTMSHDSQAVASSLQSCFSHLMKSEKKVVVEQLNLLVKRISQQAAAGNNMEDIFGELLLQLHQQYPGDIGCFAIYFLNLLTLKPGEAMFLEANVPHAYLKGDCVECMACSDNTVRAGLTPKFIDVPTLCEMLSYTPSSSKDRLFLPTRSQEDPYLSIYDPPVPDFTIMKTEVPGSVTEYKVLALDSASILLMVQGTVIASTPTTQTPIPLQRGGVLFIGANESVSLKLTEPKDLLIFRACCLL
In words: MPI enzyme activity inhibition – biochemical, fluorescence intensity, coupled assay, primary screen (AID 1209).

The target in experiment [3] is T2, Histone-lysine N-methyltransferase NSD2 (Homo sapiens, UniProt O96028).
T2 sequence (O96028 whole entry): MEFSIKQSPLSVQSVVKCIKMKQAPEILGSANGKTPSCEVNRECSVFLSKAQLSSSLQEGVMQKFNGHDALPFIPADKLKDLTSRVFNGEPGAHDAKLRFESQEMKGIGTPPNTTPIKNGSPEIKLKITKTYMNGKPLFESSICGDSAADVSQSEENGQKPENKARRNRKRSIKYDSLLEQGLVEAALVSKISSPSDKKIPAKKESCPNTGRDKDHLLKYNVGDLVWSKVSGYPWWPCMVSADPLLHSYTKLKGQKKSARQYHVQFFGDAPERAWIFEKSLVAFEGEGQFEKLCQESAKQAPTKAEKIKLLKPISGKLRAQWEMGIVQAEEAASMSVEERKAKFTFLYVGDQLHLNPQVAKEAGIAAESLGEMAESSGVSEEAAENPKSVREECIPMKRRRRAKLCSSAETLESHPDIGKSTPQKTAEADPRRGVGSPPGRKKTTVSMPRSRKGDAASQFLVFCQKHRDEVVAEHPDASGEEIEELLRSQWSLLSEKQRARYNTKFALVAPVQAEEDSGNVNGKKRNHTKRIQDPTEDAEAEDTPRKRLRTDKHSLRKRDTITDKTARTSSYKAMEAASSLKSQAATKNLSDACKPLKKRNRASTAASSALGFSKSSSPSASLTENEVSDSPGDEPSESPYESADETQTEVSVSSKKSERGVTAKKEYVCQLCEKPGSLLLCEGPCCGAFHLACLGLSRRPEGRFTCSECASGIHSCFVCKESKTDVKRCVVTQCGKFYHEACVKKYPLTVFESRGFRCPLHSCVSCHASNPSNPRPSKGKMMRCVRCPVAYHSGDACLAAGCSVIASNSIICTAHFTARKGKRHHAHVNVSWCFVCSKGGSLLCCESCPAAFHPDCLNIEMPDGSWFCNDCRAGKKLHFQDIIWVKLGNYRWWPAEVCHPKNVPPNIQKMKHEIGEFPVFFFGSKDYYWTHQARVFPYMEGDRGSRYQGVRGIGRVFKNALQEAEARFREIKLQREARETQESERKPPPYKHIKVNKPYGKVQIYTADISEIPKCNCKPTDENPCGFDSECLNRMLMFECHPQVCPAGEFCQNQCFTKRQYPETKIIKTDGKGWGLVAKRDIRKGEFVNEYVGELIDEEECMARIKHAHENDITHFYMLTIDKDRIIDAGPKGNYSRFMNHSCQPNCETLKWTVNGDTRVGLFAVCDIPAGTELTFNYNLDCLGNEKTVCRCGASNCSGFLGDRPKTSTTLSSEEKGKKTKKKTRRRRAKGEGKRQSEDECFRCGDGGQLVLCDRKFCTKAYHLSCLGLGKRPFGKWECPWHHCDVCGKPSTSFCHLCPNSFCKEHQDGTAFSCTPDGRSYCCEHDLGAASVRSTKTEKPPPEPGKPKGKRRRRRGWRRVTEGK
The format is biochemical.

Experiment [4] deals with Tyrosyl-DNA phosphodiesterase 2 (Homo sapiens, UniProt O95551). As to the kind of experiment: potency against TDP2 phosphodiesterase activity – biochemical, epi absorbance, IC50, dose response (AID 743297).
Experiment [5] deals with T3, Sentrin-specific protease 7 (Homo sapiens, UniProt Q9BQF6).
T3 sequence (Q9BQF6 whole entry): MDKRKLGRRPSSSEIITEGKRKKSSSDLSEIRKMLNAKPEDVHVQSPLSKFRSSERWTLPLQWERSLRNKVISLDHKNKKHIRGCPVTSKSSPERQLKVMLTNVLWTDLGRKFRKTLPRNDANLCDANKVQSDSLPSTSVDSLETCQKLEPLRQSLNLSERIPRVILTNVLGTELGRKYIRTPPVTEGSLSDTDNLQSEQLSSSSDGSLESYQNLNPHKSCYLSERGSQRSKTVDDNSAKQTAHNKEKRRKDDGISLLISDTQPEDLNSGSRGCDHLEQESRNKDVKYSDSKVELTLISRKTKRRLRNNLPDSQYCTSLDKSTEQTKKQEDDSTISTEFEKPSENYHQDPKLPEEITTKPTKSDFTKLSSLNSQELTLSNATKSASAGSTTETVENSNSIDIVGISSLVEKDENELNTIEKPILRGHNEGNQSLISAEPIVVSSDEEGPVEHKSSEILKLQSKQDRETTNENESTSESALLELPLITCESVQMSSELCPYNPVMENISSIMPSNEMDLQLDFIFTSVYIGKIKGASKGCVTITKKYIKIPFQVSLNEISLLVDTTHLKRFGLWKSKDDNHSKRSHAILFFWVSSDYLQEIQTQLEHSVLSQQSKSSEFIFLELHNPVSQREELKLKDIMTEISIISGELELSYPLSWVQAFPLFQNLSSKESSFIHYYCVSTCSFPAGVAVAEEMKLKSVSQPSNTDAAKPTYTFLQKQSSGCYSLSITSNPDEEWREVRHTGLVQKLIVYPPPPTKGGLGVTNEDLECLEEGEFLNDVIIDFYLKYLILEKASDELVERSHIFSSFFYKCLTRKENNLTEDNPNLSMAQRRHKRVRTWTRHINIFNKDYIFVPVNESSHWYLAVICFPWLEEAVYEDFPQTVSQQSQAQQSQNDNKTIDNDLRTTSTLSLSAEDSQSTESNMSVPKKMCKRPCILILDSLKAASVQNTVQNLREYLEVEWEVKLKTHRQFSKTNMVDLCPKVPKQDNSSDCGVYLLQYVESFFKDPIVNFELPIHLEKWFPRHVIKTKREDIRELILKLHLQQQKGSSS
As to the kind of experiment: inhibition of human SENP7 cleavage activity – biochemical, luminescence, SAR follow-up (AID 504497). It counts as functional.

Sequence of Small ubiquitin-related modifier 1 (P63165 whole entry): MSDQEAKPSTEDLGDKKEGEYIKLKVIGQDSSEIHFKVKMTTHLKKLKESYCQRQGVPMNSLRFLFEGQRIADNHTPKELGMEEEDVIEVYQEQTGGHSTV
Sequence of Tyrosyl-DNA phosphodiesterase 2 (O95551 whole entry): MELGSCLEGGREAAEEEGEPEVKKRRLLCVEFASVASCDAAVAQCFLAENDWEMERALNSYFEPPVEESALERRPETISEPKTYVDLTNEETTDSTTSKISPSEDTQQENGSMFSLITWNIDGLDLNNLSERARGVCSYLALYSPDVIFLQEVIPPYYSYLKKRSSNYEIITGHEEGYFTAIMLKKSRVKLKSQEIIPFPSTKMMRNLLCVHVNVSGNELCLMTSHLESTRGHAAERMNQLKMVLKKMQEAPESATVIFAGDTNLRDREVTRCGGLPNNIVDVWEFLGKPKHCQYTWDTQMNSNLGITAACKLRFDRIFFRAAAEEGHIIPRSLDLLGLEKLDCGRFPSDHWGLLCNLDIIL

For the compound `N#Cc1c(O)nc(SCC(=O)N2c3ccccc3Sc3ccccc32)nc1-c1ccccc1`, in experiment [1], the IC50 is 21 µM (inactive).

For the compound `N=C1S/C(=C\c2ccc(-c3ccccc3C(=O)O)o2)C(=O)N1c1ccc2c(c1)OCO2`, the IC50 in experiment [2] is 11.1 µM (active). The AC50 in experiment [3] was 3.28 µM (active).

Consider `COc1cc(C(=O)c2nccc3cc(OC)c(OC)cc23)c([N+](=O)[O-])cc1OC`, for which the values for the IC50 in experiment [4] and in experiment [5] were > 128 µM (inactive) and 24.6 µM (active), respectively. Moreover, the AC50 in experiment [3] was > 20 µM (inactive).
